Results from patent US8178530B2, “Imidazolopyrazine compounds useful for the treatment of degenerative and inflammatory diseases” (Janssen Pharmaceutica NV, priority 2006, dated 2012).

Tested on: MMP1 expression by SFs
Test: 'MMP assay': MMP1 expression by 'complex trigger' activated synovial fibroblasts (MMP1 ELISA)
Assay type: cell-based, human
Settings: Homo sapiens, Fibroblast, RASFs, 48 hrs

SMILES	EC50
NC(=O)c1ccc(-c2cnc(Nc3ccc(-c4cccnc4)cc3)c3nccn23)cc1 [Compound 153]	101 to 500 nM
C[C@@H]1CN(c2ccc(Nc3ncc(-c4ccc(C(N)=O)cc4)n4ccnc34)cc2)C[C@H](C)N1C [Compound 155]	101 to 500 nM
NC(=O)c1ccc(-c2cnc(Nc3ccc(N4CCN(CCO)CC4)cc3)c3nccn23)cc1 [Compound 156]	101 to 500 nM
NC(=O)c1cnc(-c2cnc(Nc3ccc(N4CCOCC4)cc3)c3nccn23)s1 [Compound 158, 2-[8-(4-Morpholin-4-yl-phenylamino)-imidazo[1,2-a]pyrazin-5-yl]-thiazole-5-carboxylic acid amide]	> 1000 nM
CN1CCC(COc2ccc(Nc3ncc(-c4ccc(C(N)=O)c(F)c4)n4ccnc34)cc2)CC1 [Compound 159, 2-Fluoro-4-{8-[4-(1-methyl-piperidin-4-ylmethoxy)-phenylamino]-imidazo[1,2-a]pyrazin-5-yl}-benzamide]	101 to 500 nM
c1cn2c(-c3cn[nH]c3C3CC3)cnc(Nc3ccc(N4CCOCC4)cc3)c2n1 [Compound 160, [5-(5-Cyclopropyl-1H-pyrazol-4-yl)-imidazo[1,2-a]pyrazin-8-yl]-(4-morpholin-4-yl-phenyl)-amine]	> 1000 nM
c1cn2c(-c3c[nH]cn3)cnc(Nc3ccc(N4CCOCC4)cc3)c2n1 [Compound 163]	> 1000 nM
NC(=O)c1c(F)cc(-c2cnc(Nc3ccc(N4CCOCC4)cc3)c3nccn23)cc1F [Compound 165]	> 1000 nM
CN(C)Cc1cn(-c2ccc(Nc3ncc(-c4ccc(C(N)=O)cc4)n4ccnc34)cc2)nn1 [Compound 166, 4-{8-[4-(4-Dimethylaminomethyl-[1,2,3]triazol-1-yl)-phenylamino]-imidazo[1,2-a]pyrazin-5-yl}-benzamide]	> 1000 nM
NC(=O)c1ccc(-c2cnc(Nc3ccc(-n4ccnc4)cc3)c3nccn23)cc1 [Compound 167]	> 1000 nM
c1cn(-c2ccc(Nc3ncc(-c4cn[nH]c4)n4ccnc34)cc2)cn1 [Compound 168, (4-Imidazol-1-yl-phenyl)-[5-(1H-pyrazol-4-yl)-imidazo[1,2-a]pyrazin-8-yl]-amine]	> 1000 nM
Cn1nnc(-c2ccc(Nc3ncc(-c4cn[nH]c4)n4ccnc34)cc2)n1 [Compound 169, [4-(2-Methyl-2H-tetrazol-5-yl)-phenyl]-[5-(1H-pyrazol-4-yl)-imidazo[1,2-a]pyrazin-8-yl]-amine]	101 to 500 nM
CN1CCN(c2ccc(Nc3ncc(-c4ccc(C(N)=O)cc4)n4ccnc34)cc2F)CC1 [Compound 171, 4-{8-[3-Fluoro-4-(4-methyl-piperazin-1-yl)-phenylamino]-imidazo[1,2-a]pyrazin-5-yl}-benzamide]	101 to 500 nM
NC(=O)c1ncc(-c2cnc(Nc3ccc(N4CCOCC4)cc3)c3nccn23)s1 [Compound 173, 5-[8-(4-Morpholin-4-yl-phenylamino)-imidazo[1,2-a]pyrazin-5-yl]-thiazole-2-carboxylic acid amide]	> 1000 nM
Cc1[nH]ncc1-c1cnc(Nc2ccc(N3CCOCC3)cc2)c2nccn12 [Compound 176]	> 1000 nM
C[C@@H]1CN(c2ccc(Nc3ncc(-c4cc(F)c(C(N)=O)c(F)c4)n4ccnc34)cc2)[C@@H](C)CN1C [Compound 181]	> 1000 nM
C[C@@H]1CN(c2ccc(Nc3ncc(-c4csc(C(N)=O)c4)n4ccnc34)cc2)[C@@H](C)CN1C [Compound 186]	501 to 1000 nM
C[C@@H]1CN(c2ccc(Nc3ncc(-c4cc(C(N)=O)co4)n4ccnc34)cc2)[C@@H](C)CN1C [Compound 187]	101 to 500 nM
Cc1oc(-c2cnc(Nc3ccc(N4CCOCC4)cc3)c3nccn23)cc1C(N)=O [Compound 188]	501 to 1000 nM
CC(C)N1CCN(c2ccc(Nc3ncc(-c4cc(F)c(C(N)=O)c(F)c4)n4ccnc34)cc2)CC1 [Compound 193]	501 to 1000 nM
O=C1NCc2cc(-c3cnc(Nc4cccnc4)c4nccn34)ccc21 [Compound 197]	501 to 1000 nM
O=C1NCc2cc(-c3cnc(Nc4ccc(N5CCOCC5)cc4)c4nccn34)sc21 [Compound 198, 2-[8-(4-Morpholin-4-yl-phenylamino)-imidazo[1,2-a]pyrazin-5-yl]-4,5-dihydro-thieno[2,3-c]pyrrol-6-one]	101 to 500 nM
CC(C)N1CCN(c2ccc(Nc3ncc(-c4coc(C(N)=O)c4)n4ccnc34)cc2)CC1 [Compound 204, 4-{8-[4-(4-Isopropyl-piperazin-1-yl)-phenylamino]-imidazo[1,2-a]pyrazin-5-yl}-furan-2-carboxylic acid amide]	501 to 1000 nM
CC(C)N1CCN(c2ccc(Nc3ncc(-c4ccc5c(c4)CNC5=O)n4ccnc34)cc2)CC1 [Compound 205, 5-{8-[4-(4-Isopropyl-piperazin-1-yl)-phenylamino]-imidazo[1,2-a]pyrazin-5-yl}-2,3-dihydro-isoindol-1-one]	> 1000 nM
CC(C)N1CCN(c2ccc(Nc3ncc(-c4ccc5c(c4)CNC5=O)n4ccnc34)cn2)CC1 [Compound 210, 5-{8-[6-(4-Isopropyl-piperazin-1-yl)-pyridin-3-ylamino]-imidazo[1,2-a]pyrazin-5-yl}-2,3-dihydro-isoindol-1-one]	501 to 1000 nM
CN(C)Cc1cc(Nc2ncc(-c3cn[nH]c3)n3ccnc23)ccc1N1CCOCC1 [Compound 218, (3-Dimethylaminomethyl-4-morpholin-4-yl-phenyl)-[5-(1H-pyrazol-4-yl)-imidazo[1,2-a]pyrazin-8-yl]-amine]	> 1000 nM
